Where two headings read alike, the source gives them in different places.
Legend:
Bcl-xL = Bcl-xL (Homo sapiens, UniProt Q07817); assay: Time Resolved-Fluorescence Resonance Energy Transfer (TR-FRET) binding assay, competition with probe F-Bak
Summary of the method: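 TR-FRET binding assay run at room temperature for 2 h after mixing compound with Bcl-xL protein, F-Bak probe and Tb-labelled antibody. Test compounds diluted from a 2× 50 μM stock. Ki values derived via Wang's equation from 520/495 nm emission under 340 nm excitation, in the absence of serum or with 1% HS.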

[1] = test system: Molt-4 human acute lymphoblastic leukemia cells; assay: Molt-4 cell viability assay (CellTiter-Glo, 48 hours, 10% HS); assay type: cell-based; conditions: non-permeabilized cells
Summary of the method: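 Cells were seeded at 12,500 per well in medium with 10% human serum and exposed to a 3-fold compound dilution series from 10 μM to 0.0005 μM. After 48 h, viable cells were quantified by CellTiter-Glo luminescence. Each concentration was run in duplicate on at least 3 occasions.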

[2] = test system: permeabilized Bcl-xL dependent Molt-4 cells; assay: Cytochrome C release in selectively (digitonin) permeabilized Molt-4 cells; assay type: cell-based, human; conditions: 4 h treatment, read-out: Molt-4 Permeabilized Cyt C Release
Source text: The permeabilization of the mitochondrial outer membrane to release proteins from the intermembrane space into the cytosol is a pivotal event in the process of apoptosis. Specifically, the release of cytochrome C triggers the formation of the apoptosome which, in turn, results in caspase activation and other events that will commit the cell to undergo programmed cell death (Goldstein el al., 2005, Cell Death and Differentiation 12:453). The process of mitochondrial outer membrane permeabilization (MOMP) is controlled by the Bcl-2 family members. It is promoted by the multidomain pro-apoptotic proteins Bax and Bak which, upon activation, oligomerize on the outer mitochondrial membrane and form pores to ultimately release cytochrome C. This action is antagonized by the antiapoptotic members, including Bcl-2 and Bcl-xL. Compounds that are capable of inhibiting Bcl-2 or Bcl-xL, for example, in cells that depend upon these proteins for survival, can cause activation of Bax and or Bak, MOMP, release of cytochrome C and the mentioned downstream steps in the apoptotic process. This process of cytochrome C release can be measured in cells via Western blot of both mitochrondrial and cytosolic fractions, and can be used a proxy measurement of apoptosis in cells.
As a means of detecting the ability of a Bcl-xL inhibitor with low cell-permeability to cause release of cytochrome C, the cells can be treated with an agent that causes selective pore formation in the plasma membrane, but not the mitochondrial membrane. Specifically, the cholesterol/phospholipid ratio is much higher in the plasma membrane than the mitochondrial membrane. […] This agent forms insoluble complexes with cholesterol leading to the segregation of cholesterol from its normal phospholipid binding sites. This action, in turn, leads to the formation of holes about 40-50 Å wide in the lipid bilayer. Once the plasma membrane is permeabilized, cytosolic components able to pass over digitonin-formed holes can be washed out, including the cytochrome C that was released from mitochondria to cytosol in the apoptotic cells ((Campos, 2006, Cytometry A 69(6):515-523)).
To determine if Bcl-xL inhibitors were inducing cell death through apoptosis, cytochrome C release was measured in Bcl-xL dependent Molt-4 cells following treatment Specifically, 1×10^6 cells were treated for 4 h (37° C., 5% CO2) with the test compounds in half-log dilutions starting at 3.0 μM and ending at 0.01 μM. Cells were then processed as described in Chen et al., 2011, Mol. Cancer Ther. 10:2340-2350 (the Bcl-2/Bcl-X(L)/Bcl-w inhibitor, navitoclax, enhances the activity of chemotherapeutic agents in vitro and in vivo.).

[3] = in the presence of 1% HS, read-out: Bcl-xL Binding Ki (nM, 1% HS)
[4] = without HS, read-out: Bcl-xL Binding Ki

Chain of Bcl-xL (Q07817 whole entry): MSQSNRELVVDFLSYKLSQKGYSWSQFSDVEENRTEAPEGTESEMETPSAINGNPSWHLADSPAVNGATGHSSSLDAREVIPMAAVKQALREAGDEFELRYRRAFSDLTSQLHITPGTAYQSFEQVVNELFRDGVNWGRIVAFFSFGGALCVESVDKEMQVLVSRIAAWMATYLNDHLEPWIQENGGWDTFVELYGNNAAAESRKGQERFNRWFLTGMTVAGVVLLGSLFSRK

SMILES | Ki (Bcl-xL; [3]) [nM] | Ki (Bcl-xL; [4]) [nM] | EC50 ([1]; Homo sapiens, MOLT-4, 48 h) [nM] | EC50 ([2]; Homo sapiens, MOLT-4, 4 h) [nM] | EC50 [1] [nM] | EC50 [2] [nM]
Cc1c(-c2ccc(N3CCc4cccc(C(=O)Nc5nc6ccccc6s5)c4C3)nc2C(=O)O)cnn1CC12CC3(C)CC(C)(C1)CC(OCCN(C)C(=O)[C@@H](N)CCCC[N+](C)(C)C)(C3)C2 [Example 1.29, N-[(5S)-5-amino-6-{[2-({3-[(4-{6-[8-(1,3-benzothiazol-2-ylcarbamoyl)-3,4-dihydroisoquinolin-2 (1H)-yl]-2-carboxypyridin-3-yl}-5-methyl-1H-pyrazol-1-yl)methyl]-5,7-dimethyltricyclo[3.3.1.1^3,7]dec-1-yl}oxy)ethyl](methyl)amino}-6-oxohexyl]-N,N-dimethylmethanaminium] | 0.033 | 0.009 |  |  | 935 | < 0.5
Cc1c(-c2ccc(N3CCc4c(OCCN)ccc(C(=O)Nc5nc6ccccc6s5)c4C3)nc2C(=O)O)cnn1CC12CC3(C)CC(C)(C1)CC(OCCN(C)CCS(=O)(=O)O)(C3)C2 [Example 1.46, 6-[5-(2-aminoethoxy)-8-(1,3-benzothiazol-2-ylcarbamoyl)-3,4-dihydroisoquinolin-2 (1H)-yl]-3-{1-[(3,5-dimethyl-7-{2-[methyl(2-sulfoethyl)amino]ethoxy}tricyclo[3.3.1.1^3,7]dec-1-yl)methyl]-5-methyl-1H-pyrazol-4-yl}pyridine-2-carboxylic acid] | 0.00615 | < 0.001 | 68 | < 0.5 |  | 
Cc1c(-c2ccc(N3CCc4cccc(C(=O)Nc5nc6ncccc6s5)c4C3)nc2C(=O)O)cnn1CC12CC3(C)CC(C)(C1)CC(OCCNCCCP(=O)(O)O)(C3)C2 [Example 1.39, 3-{1-[(3,5-dimethyl-7-{2-[(3-phosphonopropyl)amino]ethoxy}tricyclo[3.3.1.1^3,7]dec-1-yl)methyl]-5-methyl-1H-pyrazol-4-yl}-6-[8-([1,3]thiazolo[4,5-b]pyridin-2-ylcarbamoyl)-3,4-dihydroisoquinolin-2 (1H)-yl]pyridine-2-carboxylic acid] | 0.174 | 0.018 | 1590 | < 0.5 |  | 
Cc1c(-c2ccc(N3CCc4c(OCCNCCC(=O)O)ccc(C(=O)Nc5nc6ccccc6s5)c4C3)nc2C(=O)O)cnn1CC12CC3(C)CC(C)(C1)CC(OCCN(C)CCS(=O)(=O)O)(C3)C2 [Example 1.49, 6-[8-(1,3-benzothiazol-2-ylcarbamoyl)-5-{2-[(2-carboxyethyl)amino]ethoxy}-3,4-dihydroisoquinolin-2 (1H)-yl]-3-{1-[(3,5-dimethyl-7-{2-[methyl(2-sulfoethyl)amino]ethoxy}tricyclo[3.3.1.1^3,7]dec-1-yl)methyl]-5-methyl-1H-pyrazol-4-yl}pyridine-2-carboxylic acid] |  |  | 92 | < 0.5 |  | 
Cc1c(-c2ccc(N3CCc4cccc(C(=O)Nc5nc6ccccc6s5)c4C3)nc2C(=O)O)cnn1CC12CC3(C)CC(C)(C1)CC(OCCN(CCS(=O)(=O)O)C1CCNCC1)(C3)C2 [Example 1.30, 6-[8-(1,3-benzothiazol-2-ylcarbamoyl)-3,4-dihydroisoquinolin-2 (1H)-yl]-3-{1-[(3,5-dimethyl-7-{2-[piperidin-4-yl(2-sulfoethyl)amino]ethoxy}tricyclo[3.3.1.1^3,7]dec-1-yl)methyl]-5-methyl-1H-pyrazol-4-yl}pyridine-2-carboxylic acid] | 0.12 | < 0.001 | 184 |  |  | 
Cc1c(-c2ccc(N3CCc4cccc(C(=O)Nc5nc6ccccc6s5)c4C3)nc2C(=O)O)cnn1CC12CC3(C)CC(C)(C1)CC(OCCN(C)C(=O)[C@@H](N)CCCCN(C)C)(C3)C2 [Example 1.63, 6-[8-(1,3-benzothiazol-2-ylcarbamoyl)-3,4-dihydroisoquinolin-2 (1H)-yl]-3-{1-[(3-{2-[(N′,N′-dimethyl-L-lysyl)(methyl)amino]ethoxy}-5,7-dimethyltricyclo[3.3.1.1^3,7]dec-1-yl)methyl]-5-methyl-1H-pyrazol-4-yl}pyridine-2-carboxylic acid] | < 0.01 | < 0.01 | 2.22 |  |  | 

The next lines start with results.

Ki (Bcl-xL; [3]) [nM] | Ki (Bcl-xL; [4]) [nM] | EC50 ([1]; Homo sapiens, MOLT-4, 48 h) [nM] | EC50 ([2]; Homo sapiens, MOLT-4, 4 h) [nM] | SMILES | EC50 [1] [nM] | EC50 [2] [nM]
0.2 | < 0.001 | 257 | < 0.5 | Cc1c(-c2ccc(N3CCc4cccc(C(=O)Nc5nc6ccccc6s5)c4C3)nc2C(=O)O)cnn1CC12CC3(C)CC(C)(C1)CC(OCCN(C)C(=O)[C@@H](N)CS(=O)(=O)O)(C3)C2 [Example 1.13, 6-[8-(1,3-benzothiazol-2-ylcarbamoyl)-3,4-dihydroisoquinolin-2 (1H)-yl]-3-{1-[(3,5-dimethyl-7-{2-[methyl(3-sulfo-L-alanyl)amino]ethoxy}tricyclo[3.3.1.1^3,7]dec-1-yl)methyl]-5-methyl-1H-pyrazol-4-yl}pyridine-2-carboxylic acid] |  | 
0.28 | < 0.001 | 708 | < 0.5 | Cc1c(-c2ccc(N3CCc4cccc(C(=O)Nc5nc6ccccc6s5)c4C3)nc2C(=O)O)cnn1CC12CC3(C)CC(C)(C1)CC(OCCNC(=O)[C@H](CC(=O)O)NCCC(=O)O)(C3)C2 [Example 1.32, 6-[8-(1,3-benzothiazol-2-ylcarbamoyl)-3,4-dihydroisoquinolin-2 (1H)-yl]-3-(1-{[3-(2-{[N-(2-carboxyethyl)-L-alpha-aspartyl]amino}ethoxy)-5,7-dimethyltricyclo[3.3.1.1^3,7]dec-1-yl]methyl}-5-methyl-1H-pyrazol-4-yl}pyridine-2-carboxylic acid] |  | 
0.083 | < 0.001 | 430 | < 0.5 | Cc1c(-c2ccc(N3CCc4cccc(C(=O)Nc5nc6ccccc6s5)c4C3)nc2C(=O)O)cnn1CC12CC3(C)CC(C)(C1)CC(OCCNCCC(=O)O)(C3)C2 [Example 1.25, 6-[8-(1,3-benzothiazol-2-ylcarbamoyl)-3,4-dihydroisoquinolin-2 (1H)-yl]-3-{1-[(3-{2-[(2-carboxyethyl)amino]ethoxy}-5,7-dimethyltricyclo[3.3.1.1^3,7]dec-1-yl)methyl]-5-methyl-1H-pyrazol-4-yl)pyridine-2-carboxylic acid] |  | 
0.17 | < 0.001 | 63 | < 0.5 | Cc1c(-c2ccc(N3CCc4cccc(C(=O)Nc5nc6ccccc6s5)c4C3)nc2C(=O)O)cnn1CC12CC3(C)CC(C)(C1)CC(OCCOCCNCCS(=O)(=O)O)(C3)C2 [Example 1.11, 6-[8-(1,3-benzothiazol-2-ylcarbamoyl)-3,4-dihydroisoquinolin-2 (1H)-yl]-3-(1-{[3,5-dimethyl-7-(2-{2-[(2-sulfoethyl)amino]ethoxy}ethoxy)tricyclo[3.3.1.1^3,7]dec-1-yl]methyl}-5-methyl-1H-pyrazol-4-yl}pyridine-2-carboxylic acid] |  | 
0.282 | < 0.001 | 1260 | < 0.5 | Cc1c(-c2ccc(N3CCc4cccc(C(=O)Nc5nc6ccccc6s5)c4C3)nc2C(=O)O)cnn1CC12CC3(C)CC(C)(C1)CC(OCCN(CCS(=O)(=O)O)C(=O)[C@@H](N)CC(=O)O)(C3)C2 [Example 1.44, 3-{1-[(3-{2-[L-alpha-aspartyl(2-sulfoethyl)amino]ethoxy}-5,7-dimethyltricyclo[3.3.1.1^3,7]dec-1-yl)methyl]-5-methyl-1H-pyrazol-4-yl}-6-[8-(1,3-benzothiazol-2-ylcarbamoyl)-3,4-dihydroisoquinolin-2 (1H)-yl]pyridine-2-carboxylic acid] |  | 
0.16 | < 0.001 |  | < 0.5 | Cc1c(-c2ccc(N3CCc4cccc(C(=O)Nc5nc6ccccc6s5)c4C3)nc2C(=O)O)cnn1CC12CC3(C)CC(C)(C1)CC(OCCNCCS(=O)(=O)O)(C3)C2 [Example 1.2, 6-[8-(1,3-benzothiazol-2-ylcarbamoyl)-3,4-dihydroisoquinolin-2 (1H)-yl]-3-(1-[(3,5-dimethyl-7-{12-[(2-sulfoethyl)amino]ethoxy}tricyclo[3.3.1.1^3,7]dec-1-yl)methyl]-5-methyl-1H-pyrazol-4-yl}pyridine-2-carboxylic acid] |  | 

— patent publication US20240058450A1, “BCL-XL Inhibitory Compounds Having Low Cell Permeability and Antibody Drug Conjugates Including the Same” (AbbVie Inc., priority 2014, published 2024)
